Patent US20240400572A1, “COMPOUNDS AND METHODS FOR TREATING CANCERS THAT ARE MGMT DEFICIENT REGARDLESS OF MMR STATUS” (Yale University, priority 2021, published 2024)
Where “and” joins values, the source holds several entries; their conditions need not be identical. Equal values may be shown once. Read-outs that look alike come from different tables or passages of the source.

Test: Brain distribution study
Format: in vivo, male C57BL/6 mice
Experimental: Compound KL50 dosing solution: 3.39% DMSO+96.61% (10% HP-β-CD in saline) at 2 mg/mL; • 1) Weigh 17.39 mg of compound KL50 into a clean tube. • 2) Add 0.295 mL DMSO into the tube containing the compound. • 3) Vortex the tube for 3 min and sonicate it for 4 min. • 4) Add 8.400 mL 10% HP-β-CD in saline into the tube and vortex the tube for 3 min. Compound I-1 dosing solution: 3.39% DMSO+96.61% (10% HP-β-CD in saline) at 2 mg/mL; • 1) Weigh 16.86 mg Compound I-1 into a clean tube. • 2) Add 0.286 mL DMSO into the tube containing the compound. • 3) Vortex the tube for 3 min and sonicate it for 4 min. • 4) Add 8.144 mL 10% HP-β-CD in saline into the tube and vortex the tube for 3 min.
The in-vivo pharmacokinetic and brain distribution study was conducted under the following parameters. Twenty seven C57BL/6 male mice were purchased from Shanghai JiHui Laboratory Animal Co. LTD. Each mouse weighted from 16 g to 17 g. The mice were fasted overnight and fed post 4 hr sampling. Compound KL50 and Compound I-I were administered via oral gavage (PO) at a dose of 20 mg/kg (10 mL/kg). After dosing, sampling was completed at 0.083, 0.167, 0.333, 0.5, 0.75, 1, 2, 4 and 8 hr post dose, with three mice sacrificed at each time point.
Terminal bleeding for plasma and brain was completed at each time point. Approximately 110 μL blood per time point was collected into a K2EDTA tube via the facial vein. The blood sample was put on wet ice and centrifuged to obtain plasma sample (2000 g, 5 min under 4° C.) within 15 minutes. Plasma samples were acidified with 6 μL of formic acid for every 54 μL of plasma. After blood collection, a mid-line incision was made in the animal's scalp and the skin was retracted. The skull overlying the brain was removed. Then, the whole brain was collected, rinsed with cold saline, dried on filtrate paper, and weighed; and then snap frozen by placing the brain into dry-ice. Plasma samples were stored at approximately −70° C. until analysis. Brain tissue was homogenized with 3 volumes (v/w) of PBS (1% FA) and then analyzed with LC-MS/MS. The concentration of study drug was corrected with a dilution factor of four as following: Brain concentration=brain homogenate conc.×4, assuming 1 g wet brain tissue equals to 1 mL

[1] = PO 20 mg/kg, male C57BL/6 mice, 0.083 hr, 20 mg/kg
[2] = PO 20 mg/kg, male C57BL/6 mice, 0.167 hr, 20 mg/kg
[3] = PO 20 mg/kg, male C57BL/6 mice, 0.333 hr, 20 mg/kg
[4] = PO 20 mg/kg, male C57BL/6 mice, 0.5 hr, 20 mg/kg
[5] = PO 20 mg/kg, male C57BL/6 mice, 0.75 hr, 20 mg/kg
[6] = PO 20 mg/kg, male C57BL/6 mice, 1 hr, 20 mg/kg
[7] = PO 20 mg/kg, male C57BL/6 mice, 2 hr, 20 mg/kg
[8] = PO 20 mg/kg, male C57BL/6 mice, 4 hr
[9] = PO 20 mg/kg, male C57BL/6 mice, 8 hr
[10] = brain, PO 20 mg/kg, male C57BL/6 mice
[11] = mouse, brain, PO 20 mg/kg, male C57BL/6 mice

With `CNC(=O)c1ncn2c(=O)n(CCF)nnc12` [Compound I-1, 3-(2-fluoroethyl)-N-methyl-4-oxo-3H,4H-imidazo[4,3-d][1,2,3,5]tetrazine-8-carboxamide] the “Brain Concentration/Plasma Concentration, Individuals” value [1] was 0.310 and 0.329, the “brain Concentration, Individuals” value [1] was 6300 ng/g and 6740 ng/g and the “Brain Concentration/Plasma Concentration, Individuals” value [2] was 0.473 and 0.549. For the same compound, the “brain Concentration, Individuals” value [2] was 7100 ng/g and 9110 ng/g, the “Brain Concentration/Plasma Concentration, Individuals” value [3] was 0.606 and 0.651 and the “brain Concentration, Individuals” value [3] was 6850 ng/g and 8730 ng/g. For the same compound, the “Brain Concentration/Plasma Concentration, Individuals” value [4] was 0.677 and 0.522, the “brain Concentration, Individuals” value [4] was 4770 ng/g and 3750 ng/g and the “Brain Concentration/Plasma Concentration, Individuals” value [5] was 0.623 and 0.560. The “brain Concentration, Individuals” value [5] was 2500 ng/g and 1920 ng/g, the “Brain Concentration/Plasma Concentration, Individuals” value [6] was 0.626 and 0.527 and the “brain Concentration, Individuals” value [6] was 952 ng/g and 1280 ng/g. For the same compound, the “Brain Concentration/Plasma Concentration, Individuals” value [7] was 0.483 and 0.490, the “brain Concentration, Individuals” value [7] was 155 ng/g and 345 ng/g and 90.6 ng/g and the “brain Concentration, Individuals (below limit)” value [8] was “BQL (Below the quantifiable limit of 1.00 ng/mL or ng/g for Compound I-1 in mouse plasma and brain homogenate)”. For the same compound, the “brain Concentration, Mean (below limit)” value [8] was “BQL (Below the quantifiable limit of 1.00 ng/mL or ng/g for Compound I-1 in mouse plasma and brain homogenate)”, the “brain Concentration, Individuals (below limit)” value [9] was “BQL (Below the quantifiable limit of 1.00 ng/mL or ng/g for Compound I-1 in mouse plasma and brain homogenate)” and the “brain Concentration, Mean (below limit)” value [9] was “BQL (Below the quantifiable limit of 1.00 ng/mL or ng/g for Compound I-1 in mouse plasma and brain homogenate)”. It also gave an AUCINF [10] of 4849 ng·h/g, an AUClast [10] of 4749 ng·h/g and a concentration at 0.083 hr (male, C57BL/6, mouse, brain, po, 20 mg/kg, PO 20 mg/kg, male C57BL/6 mice, 0.083 hr, N=3, read-out: brain Concentration, Mean) of 6300 ng/g. It also gave a concentration at 0.083 hr (male, C57BL/6, mouse, brain, po, 20 mg/kg, PO 20 mg/kg, male C57BL/6 mice, 0.083 hr, read-out: brain Concentration, Individuals) of 5860 ng/g, a concentration at 0.167 hr (male, C57BL/6, mouse, brain, po, 20 mg/kg, PO 20 mg/kg, male C57BL/6 mice, 0.167 hr, N=3, read-out: brain Concentration, Mean) of 7210 ng/g and a concentration at 0.167 hr (male, C57BL/6, mouse, brain, po, 20 mg/kg, PO 20 mg/kg, male C57BL/6 mice, 0.167 hr, read-out: brain Concentration, Individuals) of 5420 ng/g. For the same compound, the concentration at 0.333 hr (male, C57BL/6, mouse, brain, po, 20 mg/kg, PO 20 mg/kg, male C57BL/6 mice, 0.333 hr, N=3, read-out: brain Concentration, Mean) was 6840 ng/g, the concentration at 0.333 hr (male, C57BL/6, mouse, brain, po, 20 mg/kg, PO 20 mg/kg, male C57BL/6 mice, 0.333 hr, read-out: brain Concentration, Individuals) was 4950 ng/g and the concentration at 0.5 hr (male, C57BL/6, mouse, brain, po, 20 mg/kg, PO 20 mg/kg, male C57BL/6 mice, 0.5 hr, N=3, read-out: brain Concentration, Mean) was 3940 ng/g. The concentration at 0.5 hr (male, C57BL/6, mouse, brain, po, 20 mg/kg, PO 20 mg/kg, male C57BL/6 mice, 0.5 hr, read-out: brain Concentration, Individuals) was 3310 ng/g, the concentration at 0.75 hr (male, C57BL/6, mouse, brain, po, 20 mg/kg, PO 20 mg/kg, male C57BL/6 mice, 0.75 hr, N=3, read-out: brain Concentration, Mean) was 2240 ng/g and the concentration at 0.75 hr (male, C57BL/6, mouse, brain, po, 20 mg/kg, PO 20 mg/kg, male C57BL/6 mice, 0.75 hr, read-out: brain Concentration, Individuals) was 2290 ng/g. The concentration at 1 hr (male, C57BL/6, mouse, brain, po, 20 mg/kg, PO 20 mg/kg, male C57BL/6 mice, 1 hr, N=3, read-out: brain Concentration, Mean) was 1120 ng/g, the concentration at 1 hr (male, C57BL/6, mouse, brain, po, 20 mg/kg, PO 20 mg/kg, male C57BL/6 mice, 1 hr, read-out: brain Concentration, Individuals) was 1140 ng/g and the concentration at 2 hr (male, C57BL/6, mouse, brain, po, 20 mg/kg, PO 20 mg/kg, male C57BL/6 mice, 2 hr, N=3, read-out: brain Concentration, Mean) was 197 ng/g. The Kp (male, C57BL/6, mouse, brain/plasma, po, 20 mg/kg, AUCbrain/AUCplasma, PO 20 mg/kg, male C57BL/6 mice, heading: AUCbrain/AUCplasma) was 49.1%, the Kp at 0.083 hr (male, C57BL/6, mouse, brain/plasma, po, 20 mg/kg, PO 20 mg/kg, male C57BL/6 mice, 0.083 hr, N=3, read-out: Brain Concentration/Plasma Concentration, Mean) was 0.305 and the Kp at 0.083 hr (male, C57BL/6, mouse, brain/plasma, po, 20 mg/kg, PO 20 mg/kg, male C57BL/6 mice, 0.083 hr, read-out: Brain Concentration/Plasma Concentration, Individuals) was 0.276. It also gave a Kp at 0.167 hr (male, C57BL/6, mouse, brain/plasma, po, 20 mg/kg, PO 20 mg/kg, male C57BL/6 mice, 0.167 hr, N=3, read-out: Brain Concentration/Plasma Concentration, Mean) of 0.501, a Kp at 0.167 hr (male, C57BL/6, mouse, brain/plasma, po, 20 mg/kg, PO 20 mg/kg, male C57BL/6 mice, 0.167 hr, read-out: Brain Concentration/Plasma Concentration, Individuals) of 0.48 and a Kp at 0.333 hr (male, C57BL/6, mouse, brain/plasma, po, 20 mg/kg, PO 20 mg/kg, male C57BL/6 mice, 0.333 hr, N=3, read-out: Brain Concentration/Plasma Concentration, Mean) of 0.606. For the same compound, the Kp at 0.333 hr (male, C57BL/6, mouse, brain/plasma, po, 20 mg/kg, PO 20 mg/kg, male C57BL/6 mice, 0.333 hr, read-out: Brain Concentration/Plasma Concentration, Individuals) was 0.561, the Kp at 0.5 hr (male, C57BL/6, mouse, brain/plasma, po, 20 mg/kg, PO 20 mg/kg, male C57BL/6 mice, 0.5 hr, N=3, read-out: Brain Concentration/Plasma Concentration, Mean) was 0.575 and the Kp at 0.5 hr (male, C57BL/6, mouse, brain/plasma, po, 20 mg/kg, PO 20 mg/kg, male C57BL/6 mice, 0.5 hr, read-out: Brain Concentration/Plasma Concentration, Individuals) was 0.525. It also gave a Kp at 0.75 hr (male, C57BL/6, mouse, brain/plasma, po, 20 mg/kg, PO 20 mg/kg, male C57BL/6 mice, 0.75 hr, N=3, read-out: Brain Concentration/Plasma Concentration, Mean) of 0.586, a Kp at 0.75 hr (male, C57BL/6, mouse, brain/plasma, po, 20 mg/kg, PO 20 mg/kg, male C57BL/6 mice, 0.75 hr, read-out: Brain Concentration/Plasma Concentration, Individuals) of 0.575 and a Kp at 1 hr (male, C57BL/6, mouse, brain/plasma, po, 20 mg/kg, PO 20 mg/kg, male C57BL/6 mice, 1 hr, N=3, read-out: Brain Concentration/Plasma Concentration, Mean) of 0.559. It also gave a Kp at 1 hr (male, C57BL/6, mouse, brain/plasma, po, 20 mg/kg, PO 20 mg/kg, male C57BL/6 mice, 1 hr, read-out: Brain Concentration/Plasma Concentration, Individuals) of 0.523, a Kp at 2 hr (male, C57BL/6, mouse, brain/plasma, po, 20 mg/kg, PO 20 mg/kg, male C57BL/6 mice, 2 hr, N=3, read-out: Brain Concentration/Plasma Concentration, Mean) of 0.468 and a Kp at 2 hr (male, C57BL/6, mouse, brain/plasma, po, 20 mg/kg, PO 20 mg/kg, male C57BL/6 mice, 2 hr, read-out: Brain Concentration/Plasma Concentration, Individuals) of 0.432. The Cmax [11] was 7210 ng/g, the MRT inf [11] was 31.6 min and the Tmax [11] was 10 min. For the same compound, the half-life [11] was 21.1 min and the “concentration in brain tissue compared with KL50 (in words)” value (oral administration to mice) was “much larger concentration in brain tissue”.
